Measured values: patent US20130296393A1, “METHOD FOR CONTROLLING CLUBROOT” (ISHIHARA SANGYO KAISHA, LTD., priority 2011, published 2013)

Tests used:
Assay type in all cases: in vivo
[1] = system: Plasmodiophora brassicae; experiment: Cabbage clubroot control test, pot test (Example 1 / Comparative Example 1); design: key to Disease control value: {1−(treatment severity/control severity)}×100; key to Disease severity: Σ(plants×index 0-4)/(plants×4)×100; 0 = no clubroot; conditions: for Disease control value / Disease severity: 60 days after settled planting
Description: A chemical solution for spraying at 50 ppm was prepared by diluting 9.4% w/w cyazofamid (Ranman [trade name] flowable, manufactured by Ishihara Sangyo Kaisha Ltd.) with water.
A spore suspension of Plasmodiophora brassicae (fungus density: 1×10^5 fungi/g dry soil) was inoculated into a sterilization soil adjusted to pH of 6.2 with Sandoseto and after introducing the resulting test soil into a 1/5000 a pot, a cabbage (variety: Okina) seedling grown in a cell seedling tray (128 cells/seedling box) was settled-planted by establishing five plantings for each test section having a size of 0.02 m^2 per one plant. Just after the settled planting, 3 days, 7 days, 10 days and 14 days after the settled planting, the chemical solution for spraying prepared in (1) was applied by soil drench at a ratio of 250 ml/plant. Sixty days after the settled planting, the number of each index of clubroot adhesion to the root was investigated. For comparison, the same test was carried out on a control section where a soil drench treatment with the chemical solution for spraying was not applied.
The test was carried out by the same method as in Example 1(2) except that in place of the soil drench treatment with the chemical solution for spraying, 30 kg/10 a of 0.3% flusulfamide (dust formulation of Nebijin [trade name], manufactured by Mitsui Chemicals Agro, Inc.) was applied to the test soil just before settled planting and incorporated into the soil by means of a small mixer (interfusion depth: 15 cm).
In Example 1 and Comparative Example 1, the adhesion of clubroot was investigated by pulling out the root of cabbage. The adhesion of clubroot was investigated by calculating the disease severity using the following formula. In addition, the weight of cabbage in the aerial part was measured. Furthermore, the test result was shown by the average value of five plantings.
(§1) Disease severity={Σ(number of each index of diseased plants×disease index)/(number of plants surveyed×4)}×100
(§2) Disease control value={1−(treatment disease severity/control disease severity)}×100
(§3) 0: No adhesion of clubroot, 1: clubroot adhesion to lateral root, 2: clubroot adhesion to the entire lateral root or clubroot adhesion to a part of tap root, 3: adhesion of large clubroot to tap root, and 4: clubroot adhesion to the entire tap root.

[2] = system: Plasmodiophora brassicae; experiment: Cabbage clubroot control test, pot test, cyazofamid vs chlorothalonil (Example 3 / Comparative Example 3); design: key to Disease control value: control value = (1 − treated/control severity) × 100; key to Disease severity: severity = Σ(plants × index 0-4)/(plants × 4) × 100; conditions: for Disease control value / Disease severity: 57 days after settled planting
From the text: as §1, §2, §3
A spore suspension of Plasmodiophora brassicae (fungus density: 1×10^5 fungi/g dry soil) was inoculated into a sterilization soil adjusted to pH of 6.0 with Sandoseto and after introducing the resulting test soil into a 1/5000 a pot, a cabbage (variety: Okina) seedling grown in a cell seedling tray (128 cells/seedling box) was settled-planted by establishing five plantings for each test section having a size of 0.02 m^2 for one plant. Immediately, 4 days, 7 days and 14 days after settled planting, the chemical solution for spraying prepared by the same method as in Example 1(1) was drenched into the soil in a ratio of 250 ml/plant. Fifty-seven days after the settled planting, the number of each index of clubroot adhesion to the root was investigated. For comparison, the same test was carried out on a control section where a soil drench treatment with the chemical solution for spraying was not applied.
A chemical solution for spraying in a concentration of 800 ppm was prepared by diluting 40% chlorothalonil (Daconil 1000 [trade name], manufactured by SDS K.K.) with water.
The test was carried out by the same procedure as in Example 3 except that the chemical solution (cyazofamid) for spraying was replaced by the chemical solution (chlorothalonil) for spraying prepared in Comparative Example 3(1).
(§4) The disease severity and disease control value of Example 3 and Comparative Example 3 were determined by the same methods as in Example 1 and Comparative Example 1. In addition, the weight of cabbage in the aerial part was measured. Furthermore, the test result was shown by the average value of five plantings.

[3] = system: Plasmodiophora brassicae; experiment: Cabbage clubroot control test, farm field (Example 2 / Comparative Example 2); design: key to Disease control value: control value = {1 − (treated severity/control severity)}×100; key to Disease severity: severity = Σ(plants×index 0–4)/(plants surveyed×4)×100; conditions: for Disease control value / Disease severity: 77 days after settled planting
From the text: as §1, §2, §3
A spore suspension of Plasmodiophora brassicae was sprayed on the entire farm field by using a watering pot to have a fungus density of 1×10^4 fungi/g dry soil. In this farm field, a cabbage (variety: Okina) seedling grown in a cell seedling tray (128 cells/seedling box) was settled-planted by establishing two plantings for each test section containing ten plants (interplant distance: 30 cm, interrow space: 30 cm, planting in two rows). Just after the settled planting, 4 days, 7 days and 11 days after settled planting, the chemical solution for spraying prepared by the same method as in Example 1(1) was drenched into the soil in a ratio of 250 ml/plant. Seventy-seven days after the settled planting, the number of each index of clubroot adhesion to the root was investigated. For comparison, the same test was carried out on a control section where a soil drench treatment with the chemical solution for spraying was not applied.
The test was carried out by the same method as in Example 2 except that in place of the soil drench treatment with the chemical solution for spraying, a chemical solution for spraying prepared by the same method as in Example 1(1) was sprayed on a cabbage (variety: Okina) seedling grown in a cell seedling tray (128 cells/seedling box) at a concentration of 2 liters/cell seedling tray by using a watering pot and these seedlings were settled-planted.
as §4, with “2” for “3”, “two” for “five”

[4] = 50 ppm soil drench 250 ml/plant 3 days after settled planting
[5] = 50 ppm soil drench 250 ml/plant 7 days after settled planting
[6] = 50 ppm soil drench 250 ml/plant 10 days after settled planting
[7] = 50 ppm soil drench 250 ml/plant 14 days after settled planting
[8] = 50 ppm soil drench 250 ml/plant just after settled planting
[9] = 50 ppm soil drench 250 ml/plant 4 days after settled planting
[10] = 50 ppm soil drench 250 ml/plant 11 days after settled planting
[11] = 50 ppm solution sprayed on seedlings in cell tray, 2 liters/cell seedling tray, just before settled planting

For Cc1ccc(-c2c(Cl)nc(C#N)n2S(=O)(=O)N(C)C)cc1 [cyazofamid, 4-chloro-2-cyano-1-dimethylsulfamoyl-5-(4-methylphenyl)imidazole], the “Weight in the aerial part” value [1, 4] was 156 g, the Disease control value [1, 4] was 75 and the Disease severity [1, 4] was 20. For the same compound, the “Weight in the aerial part” value [1, 5] was 168 g, the Disease control value [1, 5] was 69 and the Disease severity [1, 5] was 25. For the same compound, the “Weight in the aerial part” value [1, 6] was 164 g, the Disease control value [1, 6] was 50 and the Disease severity [1, 6] was 40. For the same compound, the “Weight in the aerial part” value [1, 7] was 163 g, the Disease control value [1, 7] was 31 and the Disease severity [1, 7] was 55. The “Weight in the aerial part” value [1, 8] was 164 g, the Disease control value [1, 8] was 81 and the Disease severity [1, 8] was 15. The “Weight in the aerial part” value [2, 9] was 109 g, the Disease control value [2, 9] was 81 and the Disease severity [2, 9] was 15. The “Weight in the aerial part” value [2, 5] was 109 g, the Disease control value [2, 5] was 88 and the Disease severity [2, 5] was 10. For the same compound, the “Weight in the aerial part” value [2, 7] was 91 g, the Disease control value [2, 7] was 0 and the Disease severity [2, 7] was 80. For the same compound, the “Weight in the aerial part” value [2, 8] was 104 g, the Disease control value [2, 8] was 100 and the Disease severity [2, 8] was 0. For the same compound, the Control effect ([2]; 50 ppm soil drench, treatment within 7 days after settled planting) was “a control effect which was sufficient for practical use was obtained”, the “Weight in the aerial part” value [3, 9] was 666 g and the Disease control value [3, 9] was 87. For the same compound, the Disease severity [3, 9] was 7, the “Weight in the aerial part” value [3, 5] was 579 g and the Disease control value [3, 5] was 30. For the same compound, the Disease severity [3, 5] was 38, the “Weight in the aerial part” value [3, 10] was 563 g and the Disease control value [3, 10] was 11. The Disease severity [3, 10] was 48, the “Weight in the aerial part” value [3, 8] was 713 g and the Disease control value [3, 8] was 44. The Disease severity [3, 8] was 30, the “Weight in the aerial part” value [3, 11] was 745 g and the Disease control value [3, 11] was 44. The Disease severity [3, 11] was 30.
